The record followed here is publication PMC5637892 (Journal of Peptide Science, 2017).

For experiment [1], the system named is human IgG. Kind of experiment: Immunoprecipitation with peptide-immobilized SA beads, human IgG. The class given is binding. Particulars: biotinylated peptide on SA beads, shaken 1 h; SDS‐PAGE.
For a further experiment, the system named is IgY. Description: Peptide-conjugated affinity column HPLC, IgY. The experiment is classed as binding, chicken. The following applies: 0.1 M glycine‐HCl, pH 2.5 vs pH 3.0; IgY and IgY‐Fc.
For the next experiment, the system named is IgY‐Fc. Description: Peptide-conjugated affinity column HPLC, IgY‐Fc. The class given is binding, chicken. Particulars: for elution of IgY‐Fc from peptide column: 0.1 M glycine‐HCl, pH 2.5 vs pH 3.0, IgY and IgY‐Fc; for absorption of IgY‐Fc on peptide column: biotinylated peptide on HiTrap Streptavidin HP 1 mL, PBS wash.
Experiment [2] concerns human IgG. Description: Peptide-conjugated affinity column HPLC, human IgG. The experiment is classed as binding. The following applies: biotinylated peptide on HiTrap Streptavidin HP 1 mL, PBS wash.
Experiment [3] has as its target Chicken egg yolk immunoglobulin (IgY) (chicken). Description: SPR. (In SPR one partner is held on a chip, and binding of the other changes the refractive index at the surface.)

Positions of bridges follow the written chain, without caps; N, C: chain ends. Primed or numbered codes have the meaning given here. No end group written: not given here. *: point of attachment. PEG4′ = PEG4 spacer between biotin and the N-terminus; Biotin = O=C1N[C@H]2[C@H](CS[C@H]2CCCCC(=O)*)N1

Turning to “GVKCTWSSIVDWVCVDM (disulfide 4-14 (inferred)) [Y4‐4]”, the “recovery of hIgG by peptide beads” value in the experiment with human IgG [1] is recorded as “hIgG was not”. Further, in the experiment on IgY, the “elution of IgY from peptide column” value is “eluted from the column at pH 2.5 and 3.0, although the elution peaks at pH 2.5 were sharper than those at pH 3.0”. In the experiment on IgY‐Fc, the “elution of IgY‐Fc from peptide column” value was “eluted from the column at pH 2.5 and 3.0, although the elution peaks at pH 2.5 were sharper than those at pH 3.0”; the “absorption of IgY‐Fc on peptide column” value is “IgY and IgY‐Fc proteins were absorbed onto both columns”. The “human IgG on peptide column” value in the experiment on human IgG [2] was “human IgG passed through both peptide‐immobilized columns”.

Regarding “RSVCVWTAVTGWDCRND (disulfide 4-14 (inferred)) [Y5‐55]”, the “recovery of hIgG by peptide beads” value in the experiment on human IgG [1] was “hIgG was not”. In addition, in the experiment with IgY, the “elution of IgY from peptide column” value is “eluted from the column at pH 2.5 and 3.0, although the elution peaks at pH 2.5 were sharper than those at pH 3.0”. In the experiment with IgY‐Fc, the “elution of IgY‐Fc from peptide column” value was “eluted from the column at pH 2.5 and 3.0, although the elution peaks at pH 2.5 were sharper than those at pH 3.0”; the “absorption of IgY‐Fc on peptide column” value is “IgY and IgY‐Fc proteins were absorbed onto both columns”. Moreover, the “human IgG on peptide column” value in the experiment with human IgG [2] is given as “human IgG passed through both peptide‐immobilized columns”.

B1: Y5‐55 synthetic peptide (biotinylated IgY‐binding peptide) (peptide)
peptide: {Biotin-PEG4′}-RSVCVWTAVTGWDCRND-NH2
modifications: disulfide 4-14 (inferred)
Regarding B1, the Kd – broadly, the constant that tells how readily two partners part at equilibrium – in experiment [3] was determined as 4.4 µM.

B2: Y4‐4 synthetic peptide (biotinylated IgY‐binding peptide) (peptide)
peptide: {Biotin-PEG4′}-GVKCTWSSIVDWVCVDM-NH2
modifications: disulfide 4-14 (inferred)
On to B2, for which, in experiment [3], the Kd is 7.3 µM.
